Results: patent publication US7410963B2, “Benzo-1,4-diazepin-2-one derivatives as phosphodiesterase PDE2 inhibitors, preparation and therapeutic use thereof” (VIA Pharmaceuticals, Inc., priority 2003, dated 2008)
Like-named read-outs stand apart in the source and are kept apart here.

Target: T1, PDE2 (Bos taurus, UniProt P14099)
T1 sequence (P14099 1-921): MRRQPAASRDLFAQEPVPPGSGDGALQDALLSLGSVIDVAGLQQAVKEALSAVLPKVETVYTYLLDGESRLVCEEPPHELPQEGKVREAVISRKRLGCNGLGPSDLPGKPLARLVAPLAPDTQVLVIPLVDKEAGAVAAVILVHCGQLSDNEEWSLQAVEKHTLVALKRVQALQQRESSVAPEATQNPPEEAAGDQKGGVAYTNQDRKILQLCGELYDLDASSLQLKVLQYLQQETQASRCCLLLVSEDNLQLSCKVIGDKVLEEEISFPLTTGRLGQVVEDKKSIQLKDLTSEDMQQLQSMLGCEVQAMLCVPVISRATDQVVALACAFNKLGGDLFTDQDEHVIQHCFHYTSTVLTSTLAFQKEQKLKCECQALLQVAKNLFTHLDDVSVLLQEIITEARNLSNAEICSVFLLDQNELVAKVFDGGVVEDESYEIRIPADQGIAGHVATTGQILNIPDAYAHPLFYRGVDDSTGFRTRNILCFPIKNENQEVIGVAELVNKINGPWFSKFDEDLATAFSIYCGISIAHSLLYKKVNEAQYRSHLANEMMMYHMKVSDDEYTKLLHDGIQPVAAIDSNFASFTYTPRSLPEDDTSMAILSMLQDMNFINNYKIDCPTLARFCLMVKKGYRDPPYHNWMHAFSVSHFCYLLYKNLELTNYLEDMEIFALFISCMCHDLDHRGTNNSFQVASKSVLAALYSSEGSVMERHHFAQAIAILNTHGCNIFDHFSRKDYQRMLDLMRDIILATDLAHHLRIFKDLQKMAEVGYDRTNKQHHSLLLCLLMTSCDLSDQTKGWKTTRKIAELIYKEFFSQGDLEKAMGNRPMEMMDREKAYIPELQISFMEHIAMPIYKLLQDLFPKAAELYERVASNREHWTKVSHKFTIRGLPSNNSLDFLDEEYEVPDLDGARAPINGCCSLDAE
Test: Radioenzymatic phosphodiesterase assay: PDE2 inhibition
Format: biochemical, bovine
Conditions: read-out: PDE2 percentage of inhibition at 10 μM
Experimental: Nucleoside radioactivity was determined by liquid scintillation.

COc1ccccc1-c1cc2c(cc1OC)N(CCc1ccccc1)C(=O)CN=C2c1cccc(C#N)c1 [Example 38, 3-[8-Methoxy-7-(2-methoxy-phenyl)-2-oxo-1-phenethyl-2,3-dihydro-1H-benzo[e][1,4]diazepin-5-yl]-benzonitrile]
inhibition at 10 µM (Table 1, 10 μM test compound): 86%

COc1ccccc1-c1cc2c(cc1OC)N(Cc1ccccc1)C(=O)CN=C2c1cccc(C#N)c1 [Example 39, 3-[1-Benzyl-8-methoxy-7-(2-methoxy-phenyl)-2-oxo-2,3-dihydro-1H-benzo[e][1,4]diazepin-5-yl]-benzonitrile]
inhibition at 10 µM: 72%

CN1C(=O)CN=C(c2cccc(Cl)c2)c2cc(-c3ccccc3)ccc21 [Example 40, 5-(3-Chloro-phenyl)-1-methyl-7-phenyl-1,3-dihydro-benzo[e][1,4]diazepin-2-one]
inhibition at 10 µM (Table 1, 10 μM test compound): 68%

CN1C(=O)CN=C(c2ccccc2Cl)c2cc(-c3ccccc3)ccc21 [Example 41, 5-(2-Chloro-phenyl)-1-methyl-7-phenyl-1,3-dihydro-benzo[e][1,4]diazepin-2-one]
inhibition at 10 µM (Table 1, 10 μM test compound): 34%

CN1C(=O)CN=C(c2ccc(Cl)cc2)c2cc(-c3ccccc3)ccc21 [Example 42, 5-(4-Chloro-phenyl)-1-methyl-7-phenyl-1,3-dihydro-benzo[e][1,4]diazepin-2-one]
inhibition at 10 µM (Table 1, 10 μM test compound): 1%

COc1cc2c(cc1-c1ccc(C#N)cc1)C(c1cccc(C#N)c1)=NCC(=O)N2C [Example 43, 3-(8-Methoxy-1-methyl-2-oxo-7-(4-cyanophenyl)-2,3-dihydro-1H-benzo[e][1,4]diazepin-5-yl)-benzonitrile]
inhibition at 10 µM: 92%

COc1ccccc1-c1cc2c(cc1OC)N(Cc1ccccc1)C(=O)CN=C2c1cccc(C(N)=O)c1 [Example 44, 3-[1-Benzyl-8-methoxy-7-(2-methoxy-phenyl)-2-oxo-2,3-dihydro-1H-benzo[e][1,4]diazepin-5-yl]-benzamide]
inhibition at 10 µM: 88%

CCCN1C(=O)CN=C(c2cccc(C(N)=O)c2)c2cc(-c3ccccc3OC)c(OC)cc21 [Example 45, 3-[8-Methoxy-7-(2-methoxy-phenyl)-2-oxo-1-propyl-2,3-dihydro-1H-benzo[e][1,4]diazepin-5-yl]-benzamide]
inhibition at 10 µM: 48%

COc1ccccc1-c1cc2c(cc1OC)N(CCc1ccccc1)C(=O)CN=C2c1cccc(C(N)=O)c1 [Example 46, 3-[8-Methoxy-7-(2-methoxy-phenyl)-2-oxo-1-phenethyl-2,3-dihydro-1H-benzo[e][1,4]diazepin-5-yl]-benzamide]
inhibition at 10 µM: 78%

CCCCCCN1C(=O)CN=C(c2cccc(C(N)=O)c2)c2cc(-c3ccccc3OC)c(OC)cc21 [Example 47, 3-[1-Hexyl-8-methoxy-7-(2-methoxy-phenyl)-2-oxo-2,3-dihydro-1H-benzo[e][1,4]diazepin-5-yl]-benzamide]
inhibition at 10 µM: 59%

COc1cc2c(cc1-c1ccc(C(C)=O)cc1)C(c1cccc(C#N)c1)=NCC(=O)N2C [Example 48, 3-[7-(4-Acetylphenyl)-8-methoxy-1-methyl-2-oxo-2,3-dihydro-1H-benzo[e][1,4]diazepin-5-yl]-benzonitrile]
inhibition at 10 µM: 97%

COc1cc2c(cc1-c1ccc(C(C)=O)cc1)C(c1cccc(C(N)=O)c1)=NCC(=O)N2C [Example 49, 3-[7-(4-Acetylphenyl)-8-methoxy-1-methyl-2-oxo-2,3-dihydro-1H-benzo[e][1,4]diazepin-5-yl]-benzamide]
inhibition at 10 µM: 99%

COc1ccc(C2=NCC(=O)N(C)c3ccc(-c4ccccc4)cc32)cc1 [Example 50, 5-(4-Methoxy-phenyl)-1-methyl-7-phenyl-1,3-dihydro-benzo[e][1,4]diazepin-2-one]
inhibition at 10 µM: 95%

COc1ccccc1C1=NCC(=O)N(C)c2ccc(-c3ccccc3)cc21 [Example 51, 5-(2-Methoxy-phenyl)-1-methyl-7-phenyl-1,3-dihydro-benzo[e][1,4]diazepin-2-one]
inhibition at 10 µM (Table 1, 10 μM test compound): 28%

CN1C(=O)CN=C(c2cccc(C#N)c2)c2cc(-c3ccco3)ccc21 [Example 52, 3-[7-(Furan-2-yl)-1-methyl-2-oxo-2,3-dihydro-1H-benzo[e][1,4]diazepin-5-yl]-benzonitrile]
inhibition at 10 µM (Table 1, 10 μM test compound): 78%

COc1ccc(-c2ccc3c(c2)C(c2cccc(C#N)c2)=NCC(=O)N3C)cc1OC [Example 53, 3-[7-(3,4-Dimethoxy-phenyl)-1-methyl-2-oxo-2,3-dihydro-1H-benzo[e][1,4]diazepin-5-yl]-benzonitrile]
inhibition at 10 µM: 95%

COc1ccc(-c2ccc3c(c2)C(c2cccc(C(N)=O)c2)=NCC(=O)N3C)cc1OC [Example 54, 3-[7-(3,4-Dimethoxy-phenyl)-1-methyl-2-oxo-2,3-dihydro-1H-benzo[e][1,4]diazepin-5-yl]-benzamide]
inhibition at 10 µM: 94%

CN1C(=O)CN=C(c2cc(Cl)cc(Cl)c2)c2cc(-c3ccccc3)ccc21 [Example 55, 5-(3,5-Dichloro-phenyl)-1-methyl-7-phenyl-1,3-dihydro-benzo[e][1,4]diazepin-2-one]
inhibition at 10 µM (Table 1, 10 μM test compound): 53%

CN1C(=O)CN=C(c2ccc(Cl)c(Cl)c2)c2cc(-c3ccccc3)ccc21 [Example 56, 5-(3,4-Dichloro-phenyl)-1-methyl-7-phenyl-1,3-dihydro-benzo[e][1,4]diazepin-2-one]
inhibition at 10 µM (Table 1, 10 μM test compound): 70%

CN1C(=O)CN=C(c2ccc(F)cc2)c2cc(-c3ccccc3)ccc21 [Example 57, 5-(4-Fluoro-phenyl)-1-methyl-7-phenyl-1,3-dihydro-benzo[e][1,4]diazepin-2-one]
inhibition at 10 µM (Table 1, 10 μM test compound): 74%

CC(=O)c1cccc(C2=NCC(=O)N(C)c3ccc(-c4ccccc4)cc32)c1 [Example 58, 5-(3-Acetyl-phenyl)-1-methyl-7-phenyl-1,3-dihydro-benzo[e][1,4]diazepin-2-one]
inhibition at 10 µM (Table 1, 10 μM test compound): 91%

CN1C(=O)CN=C(c2cccc(C(F)(F)F)c2)c2cc(-c3ccccc3)ccc21 [Example 59, 1-Methyl-7-phenyl-5-(3-trifluoromethyl-phenyl)-1,3-dihydro-benzo[e][1,4]diazepin-2-one]
inhibition at 10 µM (Table 1, 10 μM test compound): 43%

Cc1ccc(C2=NCC(=O)N(C)c3ccc(-c4ccccc4)cc32)cc1[N+](=O)[O-] [Example 60, 1-Methyl-5-(4-methyl-3-nitro-phenyl)-7-phenyl-1,3-dihydro-benzo[e][1,4]diazepin-2-one]
inhibition at 10 µM (Table 1, 10 μM test compound): 88%

CN1C(=O)CN=C(c2ccc(OC(F)(F)F)cc2)c2cc(-c3ccccc3)ccc21 [Example 61, 1-Methyl-7-phenyl-5-(4-trifluoromethoxy-phenyl)-1,3-dihydro-benzo[e][1,4]diazepin-2-one]
inhibition at 10 µM (Table 1, 10 μM test compound): 31%

COc1cc2c(cc1-c1ccccc1)C(c1cccc(Br)c1)=NCC(=O)N2C [Example 62, 5-(3-Bromo-phenyl)-8-methoxy-1-methyl-7-phenyl-1,3-dihydro-benzo[e][1,4]diazepin-2-one]
inhibition at 10 µM (Table 1, 10 μM test compound): 98%

COc1cc2c(cc1-c1ccccc1OC(C)C)C(c1cccc(C#N)c1)=NCC(=O)N2C [Example 63, 3-[7-(2-isopropoxy-phenyl)-8-methoxy-1-methyl-2-oxo-2,3-dihydro-1H-benzo[e][1,4]diazepin-5-yl]-benzonitrile]
inhibition at 10 µM: 98%

COc1ccc(C2=NCC(=O)N(C)c3ccc(-c4ccccc4)cc32)cc1OC [Example 64, 5-(3,4-Dimethoxy-phenyl)-1-methyl-7-phenyl-1,3-dihydro-benzo[e][1,4]diazepin-2-one]
inhibition at 10 µM (Table 1, 10 μM test compound): 79%

CN1C(=O)CN=C(c2cccc([N+](=O)[O-])c2)c2cc(-c3ccccc3)ccc21 [Example 65, 1-Methyl-5-(3-nitro-phenyl)-7-phenyl-1,3-dihydro-benzo[e][1,4]diazepin-2-one]
inhibition at 10 µM (Table 1, 10 μM test compound): 78%

CCCCC#Cc1cccc(C2=NCC(=O)N(C)c3cc(OC)c(-c4ccccc4)cc32)c1 [Example 66, 5-(3-Hex-1-ynyl-phenyl)-8-methoxy-1-methyl-7-phenyl-1,3-dihydro-benzo[e][1,4]diazepin-2-one]
inhibition at 10 µM: 86%

COc1cc2c(cc1-c1ccccc1)C(c1cccc(C#CCNC(=O)OC(C)(C)C)c1)=NCC(=O)N2C [Example 67, {3-[3-(8-Methoxy-1-methyl-2-oxo-7-phenyl-2,3-dihydro-1H-benzo[e][1,4]diazepin-5-yl)-phenyl]-prop-2-ynyl}-carbamic acid tert-butyl ester]
inhibition at 10 µM: 60%

CN1C(=O)CN=C(c2cccc(N)c2)c2cc(-c3ccccc3)ccc21 [Example 68, 5-(3-Amino-phenyl)-1-methyl-7-phenyl-1,3-dihydro-benzo[e][1,4]diazepin-2-one]
inhibition at 10 µM (Table 1, 10 μM test compound): 52%

CN1C(=O)CN=C(c2cccc(C#N)c2)c2cc(-c3ccccc3)c(Oc3ccccc3)cc21 [Example 69, 3-(1-Methyl-2-oxo-8-phenoxy-7-phenyl-2,3-dihydro-1H-benzo[e][1,4]diazepin-5-yl)-benzonitrile]
inhibition at 10 µM: 4%
